# Laboratory results from patent publication US20140243292A1, “SUBSITUTED 2-(CHROMAN-6-YLOXYL)-THIAZOLES AND THEIR USE AS PHARMACEUTICALS” (Sanofi, priority 2011, published 2014).
# Counter-ions that a name gives are not always drawn.
# Target: T1, human NCX1 (Homo sapiens, UniProt P32418)
# T1 construct: expressed in transfected cells
# Experiment: NCX1 inhibition, reverse mode (Ca2+ influx into cells), FLIPR Fluo-4 assay
# Assay type: cell-based
# Conditions: inhibition of NCX1 in reverse mode (Ca2+ influx into cells); read-out: NCX1rv IC50
# Source text: The sodium/calcium exchanger NCX1 can transport calcium ions and sodium ions through the cell membrane. The transport is an exchange of Ca^2+ and Na^+ in two directions depending on membrane potential and ion gradients. At the first direction, named “forward mode” or “calcium export mode”, Ca^2+ is transported out of the cell and Na^+ is transported into the cell. At the other direction, named “reverse mode” or “calcium import mode”, the transport directions are vice versa. The effect of the compounds of the invention on NCX1 was determined in CHO cells stably expressing human NCX1 (gene symbol SLC8A1; cf. WO 2009/115238). The assay is based on the monitoring of intracellular Ca^2+ concentrations using a calcium-sensitive fluorescence dye which is detected by means of a FLIPR device (Fluorimetric Imaging Plate Reader, Molecular Devices).
# The assay is based on the monitoring of intracellular Ca^2+ concentrations using the calcium-sensitive dye Fluo-4. CHO cells expressing NCX1 were loaded with the dye by means of the acetoxymethyl ester Fluo-4 AM (Invitrogen, F14202), which is cleaved intracellularly by esterase activity to yield the charged species of free Fluo-4. After an preincubation period with the test compound, Gramicidine (Sigma, G5002) was added. Gramicidine is an ionophor for Na^+ ions mediating an increase of intracellular Na^+ ions. Consequently, intracellular Na^+ ions are exchanged against extracellular Ca^2+ ions (Ca^2+ influx, reverse mode). The intracellular elevation of Ca^2+ ions was detected by measuring the fluorescence of Fluo-4 at a wavelength of 520 nm by a FLIPR device.
# Briefly, for the reverse mode transport assay 18000 cells per well were seeded into a 96 well microplate (Corning COSTAR 3904) and incubated overnight in culture medium (1× Nut Mix F12 (Ham) (Gibco, 21765-029); 10% (v/v) fetal calf serum (PAA Gold, A15-649); 450 μg/ml Geneticin (Gibco, 10131-027)). A total volume of 100 μl medium per well was used. For the preparation of the FLIPR assay, the culture medium was removed from the plates and 100 μl of dye solution (2 μM Fluo-4 AM; 0.02% (v/v) Pluronic F-127 (20%, Invitrogen, P3000MP); 0.1% (v/v) bovine albumin solution (30% (v/v), Sigma, A9205) in assay buffer (133.8 mM NaCl (Sigma, S5886); 4.7 mM KCl (Sigma, P3911); 1.25 mM MgCl2 (Merck, 1.05833.0250); 3.5 mM CaCl2 (Merck, 1.02083.0250); 5 mM glucose (Sigma, G7021); 10 mM Hepes (Sigma, H4034); 0.01% (v/v) Pluronic F-127 (5%, Sigma, P2443); 2.5 mM Probenecid (Maybridge, SB00915EB); pH 7.4)) were added into each well. The plates were incubated in the dark at room temperature for 80 min. After the incubation period, the dye solution was removed and the wells were washed with 100 μl of assay buffer. Then 80 μl of a solution of the test compound in assay buffer in different concentrations were added into the wells. The plates were incubated at 16° C. for 45 min. Meanwhile a 60 μM solution of Gramicidine in assay buffer (4° C.) was prepared and stored in the wells of a 96 well microplate (96 well microplate, polypropylene, U-shape (Greiner Bio-One, 650201)) at 4° C. until measurement was started. The fluorescence monitoring was performed at 240 measuring points with measurement intervals of 2 sec. After the fifth measuring point, 40 μl of the Gramicidine solution were added to each well of the assay plates to give a final Gramicidine concentration of 20 μM. For the determination of the IC50 values the minimal fluorescence value was subtracted from the maximal fluorescence value for all measuring points. The calculation of the IC50 values via the percentage inhibitions of Ca^2+ influx into cells (reverse mode) effected by the test compound was performed in Biost@t Speed 2.0.
row,Structure (SMILES),IC50 [nM]
1,CN1CCN(Cc2cnc(Oc3ccc4c(c3)CCC(c3ccccc3)O4)s2)CC1 (centres unmarked) [compound 122],800
2,CN1CCOc2cc(S(=O)(=O)NCc3cnc(Oc4ccc5c(c4)CCC(c4ccccc4)O5)s3)ccc21 (centres unmarked) [compound 123],1100
3,Cc1nc2ccc(S(=O)(=O)NCc3cnc(Oc4ccc5c(c4)CCC(c4ccccc4)O5)s3)cc2s1 (centres unmarked) [compound 124],900
4,Cc1nc(C)c(S(=O)(=O)NCc2cnc(Oc3ccc4c(c3)CCC(c3ccccc3)O4)s2)s1 (centres unmarked) [compound 126],600
5,Cc1ncc(S(=O)(=O)NCc2cnc(Oc3ccc4c(c3)CCC(c3ccccc3)O4)s2)n1C (centres unmarked) [compound 127],1100
6,Cn1nccc1S(=O)(=O)NCc1cnc(Oc2ccc3c(c2)CCC(c2ccccc2)O3)s1 (centres unmarked) [compound 128],300
7,Cn1cc(S(=O)(=O)NCc2cnc(Oc3ccc4c(c3)CCC(c3ccccc3)O4)s2)cn1 (centres unmarked) [compound 129],900
8,Cc1c(S(=O)(=O)NCc2cnc(Oc3ccc4c(c3)CCC(c3ccccc3)O4)s2)cnn1C(C)C (centres unmarked) [compound 130],700
9,Cc1n[nH]c(C)c1S(=O)(=O)NCc1cnc(Oc2ccc3c(c2)CCC(c2ccccc2)O3)s1 (centres unmarked) [compound 131],23800
10,CCn1cc(S(=O)(=O)NCc2cnc(Oc3ccc4c(c3)CCC(c3ccccc3)O4)s2)cn1 (centres unmarked) [compound 132],300
11,Cc1c(S(=O)(=O)NCc2cnc(Oc3ccc4c(c3)CCC(c3ccccc3)O4)s2)cnn1C (centres unmarked) [compound 133],400
12,Cc1cnc(CNCc2cnc(Oc3ccc4c(c3)CCC(c3ccccc3)O4)s2)cn1 (centres unmarked) [compound 135],500
13,Cc1ccn(CCNCc2cnc(Oc3ccc4c(c3)CCC(c3ccccc3)O4)s2)n1 (centres unmarked) [compound 136],500
14,Cc1nn(C)cc1CNCc1cnc(Oc2ccc3c(c2)CCC(c2ccccc2)O3)s1 (centres unmarked) [compound 137],400
15,Cc1c(CNCc2cnc(Oc3ccc4c(c3)CCC(c3ccccc3)O4)s2)cnn1C (centres unmarked) [compound 138],300
16,CCn1cc(CNCc2cnc(Oc3ccc4c(c3)CCC(c3ccccc3)O4)s2)c(C)n1 (centres unmarked) [compound 139],500
17,Cc1cc(CNCc2cnc(Oc3ccc4c(c3)CCC(c3ccccc3)O4)s2)no1 (centres unmarked) [compound 140],200

row,Structure (SMILES),IC50 [nM]
1,Cc1cc(CNCc2cnc(Oc3ccc4c(c3)CCC(c3ccccc3)O4)s2)n(C)n1 (centres unmarked) [compound 141],400
2,c1ccc(C2CCc3cc(Oc4ncc(CNCCCn5cccn5)s4)ccc3O2)cc1 (centres unmarked) [compound 142],300
3,Cc1cc(C)nc(CNCc2cnc(Oc3ccc4c(c3)CCC(c3ccccc3)O4)s2)n1 (centres unmarked) [compound 143],500
4,C1=C(CNCc2cnc(Oc3ccc4c(c3)CCC(c3ccccc3)O4)s2)N2CCCN=C2S1 (centres unmarked) [compound 144],800
5,c1ccc(C2CCc3cc(Oc4ncc(CNCc5cccnc5N5CCOCC5)s4)ccc3O2)cc1 (centres unmarked) [compound 145],900
6,Cn1nccc1CNCc1cnc(Oc2ccc3c(c2)CCC(c2ccccc2)O3)s1 (centres unmarked) [compound 146],200
7,Cc1cc(CNCc2cnc(Oc3ccc4c(c3)CCC(c3ccccc3)O4)s2)nn1C (centres unmarked) [compound 147],300
8,Cc1c(C(C)NCc2cnc(Oc3ccc4c(c3)CCC(c3ccccc3)O4)s2)cnn1C (centres unmarked) [compound 148],400
9,c1ccc(C2CCc3cc(Oc4ncc(CNCCn5cccn5)s4)ccc3O2)cc1 (centres unmarked) [compound 149],300
10,Cc1cc(C)n(CCNCc2cnc(Oc3ccc4c(c3)CCC(c3ccccc3)O4)s2)n1 (centres unmarked) [compound 150],800
11,Cc1csc(CCNCc2cnc(Oc3ccc4c(c3)CCC(c3ccccc3)O4)s2)n1 (centres unmarked) [compound 151],400
12,Cc1noc(C)c1CNCc1cnc(Oc2ccc3c(c2)CCC(c2ccccc2)O3)s1 (centres unmarked) [compound 152],300
13,Cc1noc(C)c1CCCNCc1cnc(Oc2ccc3c(c2)CCC(c2ccccc2)O3)s1 (centres unmarked) [compound 153],500
14,Oc1cc(CNCc2cnc(Oc3ccc4c(c3)CCC(c3ccccc3)O4)s2)ccn1 (centres unmarked) [compound 154],300
15,Nc1cc(CNCc2cnc(Oc3ccc4c(c3)CCC(c3ccccc3)O4)s2)ccn1 (centres unmarked) [compound 155],400
16,c1ccc(C2CCc3cc(Oc4ncc(CNCc5nnc6ccccn56)s4)ccc3O2)cc1 (centres unmarked) [compound 156],400
17,N#Cc1ccc(CNCc2cnc(Oc3ccc4c(c3)CCC(c3ccccc3)O4)s2)cn1 (centres unmarked) [compound 157],200

# The remaining lines, values ahead:
row,IC50 [nM],Structure (SMILES)
1,100,c1ccc(C2CCc3cc(Oc4ncc(CNCc5ccno5)s4)ccc3O2)cc1 (centres unmarked) [compound 159]
2,200,Cc1cc(CNCc2cnc(Oc3ccc4c(c3)CCC(c3ccccc3)O4)s2)on1 (centres unmarked) [compound 160]
3,300,c1ccc(C2CCc3cc(Oc4ncc(CNCc5ccncn5)s4)ccc3O2)cc1 (centres unmarked) [compound 161]
4,400,c1ccc(C2CCc3cc(Oc4ncc(CNCc5ccnc(N6CCOCC6)c5)s4)ccc3O2)cc1 (centres unmarked) [compound 162]
5,400,Cc1nc(S(=O)(=O)NCc2cnc(Oc3ccc4c(c3)CCC(c3ccccc3)O4)s2)cn1C (centres unmarked) [compound 163]
6,700,CN1CC(=O)N(CC(=O)NCc2cnc(Oc3ccc4c(c3)CCC(c3ccccc3)O4)s2)C1=O (centres unmarked) [compound 164]
7,500,O=C(CN1CCCC1=O)NCc1cnc(Oc2ccc3c(c2)CCC(c2ccccc2)O3)s1 (centres unmarked) [compound 165]
8,300,Cc1nc(Oc2ccc3c(c2)CCC(c2ccccc2)O3)sc1C(=O)NCc1ccno1 (centres unmarked) [compound 166]
9,500,"Cc1nc(Oc2ccc3c(c2)CCC(c2ccccc2)O3)sc1C(=O)NCc1ccnc(Cl)c1 (centres unmarked) [compound 167, hydrochloride]"
10,200,Cc1nc(Oc2ccc3c(c2)CC[C@@H](c2ccccc2)O3)sc1C(=O)NCc1ccno1 [compound 168]
11,300,"Cc1nc(Oc2ccc3c(c2)CC[C@@H](c2ccccc2)O3)sc1C(=O)NCCc1ccncc1 [compound 169, hydrochloride]"
12,300,"Cc1nc(Oc2ccc3c(c2)CCC(c2ccccc2)O3)sc1C(=O)NCCc1ccncc1 (centres unmarked) [compound 170, hydrochloride]"
13,100,O=C(NCc1ccno1)c1cnc(Oc2ccc3c(c2)CC[C@@H](c2ccccc2)O3)s1 [compound 171]
14,400,O=C(NCc1ccno1)c1cnc(Oc2ccc3c(c2)CC[C@H](c2ccccc2)O3)s1 [compound 172]
15,2300,Cc1noc(C)c1CCNC(=O)c1cnc(Oc2ccc3c(c2)CCC(c2cccc(O)c2)O3)s1 (centres unmarked) [compound 173]
16,800,"O=C(NCc1ccncc1)c1cnc(Oc2ccc3c(c2)CCC(c2cccc(O)c2)O3)s1 (centres unmarked) [compound 174, hydrochloride]"
17,400,O=C(CN1CC[C@@H](O)C1)NCc1cnc(Oc2ccc3c(c2)CCC(c2ccccc2)O3)s1 (some centres unmarked) [compound 175]
18,400,Cc1ccccc1C1CCc2cc(Oc3ncc(C(=O)NCCc4c(C)noc4C)s3)ccc2O1 (centres unmarked) [compound 176]
19,400,"Cc1nc(Oc2ccc3c(c2)CC[C@@H](c2ccccc2)O3)sc1C(=O)NCc1ccnc(Cl)c1 [compound 178, 4-Methyl-2-((S)-2-phenyl-chroman-6-yloxy)-thiazole-5-carboxylic acid (2-chloro-pyridin-4-ylmethyl)-amide hydrochloride]"
20,500,Cc1ccccc1C1CCc2cc(Oc3ncc(C(=O)NCc4ccncc4)s3)ccc2O1 (centres unmarked) [compound 179]
21,200,CCOC(=O)[C@H](C)NC(=O)c1cnc(Oc2ccc3c(c2)CC[C@@H](c2ccccc2)O3)s1 [compound 180]
22,200,COC(=O)CNC(=O)c1cnc(Oc2ccc3c(c2)CC[C@@H](c2ccccc2)O3)s1 [compound 181]
